Measurements from patent US20210023089A1, “Compositions Useful for Treating Herpes Simplex Keratitis, and Methods Using Same” (priority 2013, published 2021).

What was measured:
ATM [1] = assay: ATM activation (pChk2 Western blot) in HSV-1 infected hTCEpi cells; type: cell-based, human; details: for effect on ATM activation (pChk2 staining): hTCEpi infected with HSV-1 at a range of MOIs, 1 hpi, PAA 400 μg/ml, CHX 5 μg/ml
Experimental: Standard protocol was followed for Western blot analysis. Cell lysates were collected in Laemmli buffer, vortexed, and boiled at 95° C. for 5 min. Protein concentrations were measured by reducing agent-compatible BCA assay. SDS-PAGE was followed by transfer onto a PVDF membrane, which was then blocked in 5% BSA. Primary antibody staining was performed overnight and blots were visualized on film or with the Odyssey near-infrared system (LI-COR, Lincoln, Nebr.). Primary antibodies against the following proteins were used: ICP0 (Virusys Corporation, Taneytown, Md.), ICP4, PML, and nucleolin (Santa Cruz Biotechnology, Santa Cruz, Calif.), ICP8, glycoproteins B and C, ATM and pATM-Ser1981 (Rockland, Gilbertsville, Pa.), Chk2 and pChk2-Thr68 (Cell Signaling, Danvers, Mass.).
(§1) hTCEpi, EPC2, and OKF6 are normal human epithelial cells from cornea, esophagus, and palate, respectively. HEK293 are human embryonic kidney epithelial cells. Cells were treated with tissue culture grade KU-55933 (10 μM), cycloheximide (5 μg/ml), phosphonoacetic acid (400 μg/ml), and H2O2 (150 μM). Viral particles were pre-treated with UV light at 0.2 J/cm^2.
Cultured cells were infected by applying the desired viral load in an inoculum volume equal to 10% of the normal volume of growth medium. During infection, cells were maintained at 37° C. and 5% CO2 and rocked every 10-15 min for 1 hour. Cells were then rinsed thoroughly with PBS and overlaid with fresh medium. For synchronized infections, virus was allowed to adsorb to cells while rocking at 4° C. After 1 hour, cells were transferred to 37° C. and 5% CO2 to initiate synchronized infection.

ATM [2] = assay: pATM immunofluorescence in HEK293 cells transfected with purified HSV-1 genome; type: cell-based, human; details: HEK293 transfected with HSV-1 KOS genome, PAA for 24 hours
Experimental: Transfection of plasmids was done with GenDrill (BamaGen, Gaithersburg, Md.), whereas transfection of BACs was accomplished with Lipofectamine transfection reagent (Invitrogen, Carlsbad, Calif.). All transfections followed standard protocols and manufacturer's instructions. Medium was changed at 6 hour post transfection.
Cells were grown on cover slips, treated as indicated, fixed in 3% paraformaldehyde/2% sucrose solution for 10 min, and permeabilized with 0.5% Triton X-100 for 5 min. Indirect immunofluorescence was performed with primary antibodies overnight followed by secondary antibody staining for 2 hours. Primary antibodies were the same as those used for Western blotting. Nuclei were counterstained with […] of Höchst 33258.
as §1

[3] = test system: dlsptk strain of HSV-1 (TK mutant); assay: qPCR of genome replication of drug-resistant HSV-1 in hTCEpi cells; type: cell-based; details: MOI 0.1, 16 hpi, KU-55933 10 μM, acyclovir 50 μg/mL
Experimental: All cells were cultured at 37° C. and 5% CO2 and supplemented with 100 U/mL penicillin and […]. Human corneal epithelial cells immortalized with hTERT (hTCEpi; Robertson, et al., 2005, Invest Ophthalmol Vis Sci. 46:470-478) were grown in complete keratinocyte growth medium 2 (KGM-2; Lonza, Basel, Switzerland). African green monkey kidney fibroblasts (CV-1; American Type Culture Collection, Manassas, Va.) were grown in Dulbecco's modified Eagle's medium (DMEM; Cellgro, Manassas, Va.) supplemented with 10% FBS. The KOS strain of HSV-1 was used in the in vitro and ex vivo infections, whereas McKrae strain was used for in vivo mouse experiments, and TK mutant dlsptk strain (Coen et al., 1989, Proc Natl Acad Sci USA 86:4736-4740) was used in the drug resistance experiments. All viral stocks were titered on CV-1 monolayers.
The following strains of HSV-1 were used: KOS, ICPO-null, HFEM, and tsB7. Subconfluent monolayers of cells were grown in six-well plates. Drug treatments were administered 45 minutes prior to infection and continued for the entire duration of each experiment. Unless indicated otherwise, KU-55933 (Batch No. 5, 99.7% purity; Tocris Bioscience, Bristol, UK) was used at 10 μM final concentration, phosphonoacetic acid (PAA) at 400 μg/mL (Sigma-Aldrich, St. Louis, Mo.), and acyclovir at 50 μg/mL (Sigma-Aldrich). KU-55933 was dissolved in dimethyl sulfoxide (DMSO), and the final concentration of DMSO in both KU-55933 and mock treatment in the in vitro and the ex vivo experiments was 0.1%.
Viral genome replication and transcription were measured by quantitative PCR (qPCR). Total DNA and RNA from infected cells were isolated using the DNeasy Blood & Tissue Kit and the RNeasy Mini Kit, respectively (QIAGEN, Hilden, Germany). RNA was converted to cDNA using qScript (Quanta BioSciences, Gaithersburg, Md.). […] Transcription of the three gene families was measured with primers for RL2 (ICPO), UL30 (DNA polymerase catalytic subunit), and UL44 (gC), with reference primers for the 18S ribosomal RNA (rRNA).

ATM [4] = target: T1, ATM (Homo sapiens, UniProt Q13315); assay: pATM Western blot in bleomycin-damaged ex vivo human corneas (bioavailability); type: cell-based; details: bleomycin 200 μg/mL 1 hour, KU-55933 10 μM 1 hour pretreatment
T1 construct: The epithelial layers were collected for protein lysates and analyzed by Western blot with antibodies against pATM (Ser1981) and total ATM; tissue Lions Eye Bank of Delaware Valley; host or cells: epithelial layer of explanted human corneas
T1 sequence (Q13315 whole entry): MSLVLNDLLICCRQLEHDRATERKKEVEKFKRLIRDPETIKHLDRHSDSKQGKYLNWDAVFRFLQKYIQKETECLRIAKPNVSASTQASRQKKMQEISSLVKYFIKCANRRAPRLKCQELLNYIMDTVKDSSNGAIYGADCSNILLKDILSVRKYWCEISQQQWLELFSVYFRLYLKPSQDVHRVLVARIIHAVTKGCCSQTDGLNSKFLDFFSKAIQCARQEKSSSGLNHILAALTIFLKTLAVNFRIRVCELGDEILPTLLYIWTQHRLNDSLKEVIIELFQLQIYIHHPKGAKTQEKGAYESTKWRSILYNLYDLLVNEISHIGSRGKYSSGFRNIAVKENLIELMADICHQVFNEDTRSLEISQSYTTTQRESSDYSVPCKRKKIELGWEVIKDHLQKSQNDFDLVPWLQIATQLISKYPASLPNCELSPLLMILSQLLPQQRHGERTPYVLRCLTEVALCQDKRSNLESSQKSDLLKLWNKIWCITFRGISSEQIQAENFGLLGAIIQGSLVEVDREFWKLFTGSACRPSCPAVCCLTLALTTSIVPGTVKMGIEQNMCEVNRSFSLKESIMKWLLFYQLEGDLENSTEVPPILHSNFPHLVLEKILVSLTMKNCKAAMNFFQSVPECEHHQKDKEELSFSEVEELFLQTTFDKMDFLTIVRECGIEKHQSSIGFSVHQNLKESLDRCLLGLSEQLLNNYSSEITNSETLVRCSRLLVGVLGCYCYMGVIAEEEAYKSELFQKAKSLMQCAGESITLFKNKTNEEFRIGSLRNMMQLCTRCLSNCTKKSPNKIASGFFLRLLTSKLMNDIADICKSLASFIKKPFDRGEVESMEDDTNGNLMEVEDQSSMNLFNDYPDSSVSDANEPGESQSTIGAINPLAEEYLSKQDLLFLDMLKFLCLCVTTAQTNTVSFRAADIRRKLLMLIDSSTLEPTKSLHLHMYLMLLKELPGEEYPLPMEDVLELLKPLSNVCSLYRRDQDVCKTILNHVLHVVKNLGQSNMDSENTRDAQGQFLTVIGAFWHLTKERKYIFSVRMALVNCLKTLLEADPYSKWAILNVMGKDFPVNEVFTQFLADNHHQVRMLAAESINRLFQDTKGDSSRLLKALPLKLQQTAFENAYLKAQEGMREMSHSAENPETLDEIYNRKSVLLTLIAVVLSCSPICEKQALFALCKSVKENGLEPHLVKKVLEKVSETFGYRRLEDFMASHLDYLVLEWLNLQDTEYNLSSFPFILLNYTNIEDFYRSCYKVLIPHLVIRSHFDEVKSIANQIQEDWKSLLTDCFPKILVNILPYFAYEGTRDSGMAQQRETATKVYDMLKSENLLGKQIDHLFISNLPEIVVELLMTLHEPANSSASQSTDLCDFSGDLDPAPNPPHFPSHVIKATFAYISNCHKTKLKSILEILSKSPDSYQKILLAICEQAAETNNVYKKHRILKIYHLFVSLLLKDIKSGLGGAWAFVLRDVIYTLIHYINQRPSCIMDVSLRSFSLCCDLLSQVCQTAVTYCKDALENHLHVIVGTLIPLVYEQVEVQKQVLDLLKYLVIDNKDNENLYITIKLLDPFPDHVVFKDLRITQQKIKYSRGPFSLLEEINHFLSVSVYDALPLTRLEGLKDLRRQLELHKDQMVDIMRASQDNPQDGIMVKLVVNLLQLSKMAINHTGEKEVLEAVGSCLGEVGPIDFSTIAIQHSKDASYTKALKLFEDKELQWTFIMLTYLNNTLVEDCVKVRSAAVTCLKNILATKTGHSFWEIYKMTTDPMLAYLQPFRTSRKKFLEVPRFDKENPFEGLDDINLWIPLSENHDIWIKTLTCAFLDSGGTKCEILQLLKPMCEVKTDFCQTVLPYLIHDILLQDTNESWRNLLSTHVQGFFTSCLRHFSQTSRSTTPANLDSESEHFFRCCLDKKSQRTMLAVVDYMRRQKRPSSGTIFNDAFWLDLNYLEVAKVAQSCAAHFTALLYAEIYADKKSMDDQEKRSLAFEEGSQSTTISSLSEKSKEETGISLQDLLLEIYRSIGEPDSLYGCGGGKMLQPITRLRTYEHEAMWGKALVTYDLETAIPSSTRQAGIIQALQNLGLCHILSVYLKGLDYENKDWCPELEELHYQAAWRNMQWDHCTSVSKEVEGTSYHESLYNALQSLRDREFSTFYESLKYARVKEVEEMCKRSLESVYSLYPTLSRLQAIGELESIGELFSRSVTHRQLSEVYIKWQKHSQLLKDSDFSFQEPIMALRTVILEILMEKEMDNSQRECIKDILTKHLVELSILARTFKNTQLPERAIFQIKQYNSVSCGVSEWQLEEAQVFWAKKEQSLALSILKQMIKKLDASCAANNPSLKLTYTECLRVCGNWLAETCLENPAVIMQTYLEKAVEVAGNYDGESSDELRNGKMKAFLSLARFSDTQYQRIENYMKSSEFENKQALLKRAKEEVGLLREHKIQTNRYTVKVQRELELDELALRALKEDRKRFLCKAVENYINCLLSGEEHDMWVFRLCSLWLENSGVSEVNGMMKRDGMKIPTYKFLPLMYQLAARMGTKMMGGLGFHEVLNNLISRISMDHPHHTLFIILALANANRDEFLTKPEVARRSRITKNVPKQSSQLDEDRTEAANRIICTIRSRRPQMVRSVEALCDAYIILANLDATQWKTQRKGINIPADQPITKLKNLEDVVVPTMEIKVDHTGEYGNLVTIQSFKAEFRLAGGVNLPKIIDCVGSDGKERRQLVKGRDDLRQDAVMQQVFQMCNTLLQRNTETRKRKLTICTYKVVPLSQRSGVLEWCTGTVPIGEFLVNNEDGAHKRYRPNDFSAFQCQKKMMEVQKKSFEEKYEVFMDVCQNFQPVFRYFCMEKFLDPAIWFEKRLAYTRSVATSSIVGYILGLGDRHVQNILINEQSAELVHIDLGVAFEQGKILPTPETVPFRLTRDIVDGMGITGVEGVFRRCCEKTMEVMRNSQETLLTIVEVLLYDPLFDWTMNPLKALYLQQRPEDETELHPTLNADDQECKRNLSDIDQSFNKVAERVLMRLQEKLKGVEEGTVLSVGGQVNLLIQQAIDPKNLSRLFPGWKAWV
Experimental: Human corneas were obtained from the Lions Eye Bank of Delaware Valley. Rabbit corneas were excised from intact fresh eyeballs of young (8-12 weeks) albino rabbits (Pel-Freez Biologicals, Rogers, Ark.). Protocol (Alekseev et al., 2012, J Vis Exp 69:e3631) for ex vivo corneal culture, infection, and treatment was followed closely. Briefly, corneoscleral buttons were excised and rinsed in PBS containing 200 U/mL penicillin and 200 μg/mL streptomycin. The endothelial concavity was filled with culture medium containing 1% low melting temperature agarose. The corneas were cultured epithelial side up in MEM medium supplemented with nonessential amino acids (1×), 2 mM […], 200 U/mL penicillin, and 200 μg/mL streptomycin. The next day, they were infected with 1×10^4 plaque forming units (PFU)/cornea of strain KOS HSV-1 for 1 hour, rinsed, and overlaid with fresh medium. Drug treatments were administered at the same concentrations as for cultured cells. For KU-55933 bioavailability assessment, corneas were treated with bleomycin (200 μg/mL) for 1 hour. […] Treatment toxicity was assessed by briefly staining the cornea with fluorescein (1% wt/vol in PBS) and imaging the epithelial defects with 464-nm wavelength blue light (LDP LLC, Carlstadt, N.J.).
Standard protocol was followed for Western blot analysis. […] Protein concentrations were measured by bicinchoninic acid (BCA) assay. […]

C[C@@H]1C[C@@H]([C@H](O)CC2CC(=O)NC(=O)C2)C(=O)[C@@H](C)C1 [CHX, cycloheximide]
effect on pChk2 staining in PML-depleted cells (ATM [1]; PML-depleted hTCEpi cells, compared with WT hTCEpi cells): same partial reduction
effect on ATM activation (pChk2 staining) (ATM [1]): partial inhibitory effect
effect on ATM activation by d120 (ICP4-null strain) (ATM [1]; hTCEpi infected with d120, CHX 5 μg/ml): not affected

O=C(O)CP(=O)(O)O [PAA, phosphonoacetic acid]
ATM activation (pATM staining) in treated transfected cells (ATM [2]): not hindered in ATM activation
effect on ATM activation (pChk2 staining) (ATM [1]): no effect

Nc1nc2c(ncn2COCCO)c(=O)[nH]1 [acyclovir]
genome replication of dlsptk strain (qPCR) [3]: largely unresponsive

bleomycin
pATM level in corneal epithelium (ATM [4]): high level of pATM
